Measured values from ChEMBL document CHEMBL1138450, “Carbonic anhydrase activators: activation of human isozymes I, II and IX with phenylsulfonylhydrazido l-histidine derivatives” (Bioorg Med Chem Lett, 2009).

Tests used:
[1] = target: Carbonic anhydrase 1 (Homo sapiens) (UniProt P00915); experiment: Activation of human recombinant CA1 by stopped flow CO2 hydration assay
[2] = target: Carbonic anhydrase 2 (Homo sapiens) (UniProt P00918); experiment: Activation of human recombinant CA2 by stopped flow CO2 hydration assay
[3] = target: Carbonic anhydrase 9 (Homo sapiens) (UniProt Q16790); experiment: Activation of human recombinant CA9 catalytic domain by stopped flow CO2 hydration assay

Sequence of Carbonic anhydrase 1 (Homo sapiens) (P00915 2-261 limits assumed): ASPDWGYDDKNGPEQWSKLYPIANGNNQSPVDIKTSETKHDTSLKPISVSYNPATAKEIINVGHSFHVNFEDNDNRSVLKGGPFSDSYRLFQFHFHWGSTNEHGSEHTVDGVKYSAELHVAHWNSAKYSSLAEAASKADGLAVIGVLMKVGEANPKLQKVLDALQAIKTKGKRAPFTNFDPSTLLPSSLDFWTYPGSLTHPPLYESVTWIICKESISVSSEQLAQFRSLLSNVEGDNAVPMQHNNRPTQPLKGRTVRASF

Structure (SMILES): N[C@@H](Cc1c[nH]cn1)C(=O)NNS(=O)(=O)c1ccc(-c2ccccc2)cc1
- KA [1]: 33.1 µM
- KA [2]: 51.7 µM
- KA [3]: 28.5 µM

Structure (SMILES): N[C@@H](Cc1c[nH]cn1)C(=O)NNS(=O)(=O)c1ccc(F)cc1
- KA [1]: 63.4 µM
- KA [2]: 44.8 µM
- KA [3]: 19.5 µM

Structure (SMILES): N[C@@H](Cc1c[nH]cn1)C(=O)NNS(=O)(=O)c1ccc([N+](=O)[O-])cc1
- KA [1]: 54.7 µM
- KA [2]: 45.6 µM
- KA [3]: 30.5 µM

Structure (SMILES): Cc1ccc(S(=O)(=O)NNC(=O)[C@@H](N)Cc2c[nH]cn2)cc1
- KA [1]: 46.8 µM
- KA [2]: 25 µM
- KA [3]: 18.1 µM

Structure (SMILES): COc1ccc(S(=O)(=O)NNC(=O)[C@@H](N)Cc2c[nH]cn2)cc1
- KA [1]: 44.8 µM
- KA [2]: 38 µM
- KA [3]: 27.4 µM

Structure (SMILES): N[C@@H](Cc1c[nH]cn1)C(=O)NNS(=O)(=O)c1ccc(I)cc1
- KA [1]: 76.3 µM
- KA [2]: 0.21 µM
- KA [3]: 14.1 µM

Structure (SMILES): CC(C)(C)c1ccc(S(=O)(=O)NNC(=O)[C@@H](N)Cc2c[nH]cn2)cc1
- KA [1]: 78.9 µM
- KA [2]: 45.2 µM
- KA [3]: 29.8 µM

Structure (SMILES): N[C@@H](Cc1c[nH]cn1)C(=O)NNS(=O)(=O)c1c(F)c(F)c(F)c(F)c1F
- KA [1]: 42.5 µM
- KA [2]: 50.2 µM
- KA [3]: 30.2 µM

Structure (SMILES): N[C@@H](Cc1c[nH]cn1)C(=O)NNS(=O)(=O)c1ccc(C(F)(F)F)cc1
- KA [1]: 38.9 µM
- KA [2]: 49.5 µM
- KA [3]: 22.4 µM

Structure (SMILES): N[C@@H](Cc1c[nH]cn1)C(=O)NNS(=O)(=O)c1ccc2ccccc2c1
- KA [1]: 63.8 µM
- KA [2]: 18 µM
- KA [3]: 24.1 µM

Structure (SMILES): N[C@@H](Cc1c[nH]cn1)C(=O)NNS(=O)(=O)c1ccc(Cl)cc1
- KA [1]: 70.1 µM
- KA [2]: 6.53 µM
- KA [3]: 35.4 µM

Structure (SMILES): N#Cc1ccc(S(=O)(=O)NNC(=O)[C@@H](N)Cc2c[nH]cn2)cc1
- KA [1]: 40.3 µM
- KA [2]: 28.7 µM
- KA [3]: 17.8 µM

Structure (SMILES): N[C@@H](Cc1c[nH]cn1)C(=O)NNS(=O)(=O)c1ccc(Br)cc1
- KA [1]: 55.7 µM
- KA [2]: 19.6 µM
- KA [3]: 13.8 µM
